IC50 and EC50 data for 19 molecules are collected here from patent US20240246964A1 (Arbutus Biopharma Corporation, priority 2021, published 2024).

Bounds are passed on as bounds.

For assay [1], the target named is PD-L1 His protein / PD-1 Fc protein (Homo sapiens (Human), UniProt Q9NZQ7). Put plainly: HTRF Assay (PD-1/PD-L1 interaction). Type of assay: binding. Particulars: PD-L1 His 6 nM, PD-1 Fc 6 nM. Background: TR-FRET usually uses a lanthanide donor and a delayed reading to cut background.
Chain of PD-L1 His protein / PD-1 Fc protein (Q9NZQ7 19-238): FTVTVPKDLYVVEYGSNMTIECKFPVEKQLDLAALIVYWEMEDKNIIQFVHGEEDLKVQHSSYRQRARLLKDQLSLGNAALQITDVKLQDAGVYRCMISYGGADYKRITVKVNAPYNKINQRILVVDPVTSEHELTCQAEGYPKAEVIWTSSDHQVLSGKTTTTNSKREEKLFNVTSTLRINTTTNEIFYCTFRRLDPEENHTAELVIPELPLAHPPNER
In assay [2] the target is human PD-L1 (Homo sapiens (Human), UniProt Q9NZQ7). Put plainly: T cell activation luciferase reporter cell culture system (T Cell Activation Assay). The settings on record: luciferase reporter assay; PD-L1 aAPC/CHO-K1 cells with PD-1 effector Jurkat T cells. Type of assay: cell-based. On the technique in general: Reporter assays use an easily measured gene product as a stand-in for the process of interest.
Chain of human PD-L1 (Q9NZQ7 19-290): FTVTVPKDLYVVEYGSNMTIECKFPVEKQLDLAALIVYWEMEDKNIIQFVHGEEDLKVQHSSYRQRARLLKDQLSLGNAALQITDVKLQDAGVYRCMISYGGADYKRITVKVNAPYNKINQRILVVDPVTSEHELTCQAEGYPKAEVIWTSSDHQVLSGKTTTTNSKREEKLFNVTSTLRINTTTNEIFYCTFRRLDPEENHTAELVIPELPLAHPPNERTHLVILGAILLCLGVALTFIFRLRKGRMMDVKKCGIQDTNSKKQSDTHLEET

In general, IC50 refers to the concentration at which inhibition is half-maximal. A high value points to weaker potency. The term EC50 denotes the concentration giving half of the maximal effect. In the case of `COc1cc(-c2cccc(-c3ccnc(-c4cnc(CN5CC6(CNC(=O)C6)C5)c(OC)c4)c3Cl)c2Cl)ccc1CN1CC2(CNC(=O)C2)C1` [Compound 501, 2-((3-Chloro-4-(2-chloro-3′-methoxy-4′-((7-oxo-2,6-diazaspiro[3.4]octan-2-yl)methyl)-[1,1′-biphenyl]-3-yl)-5′-methoxy-[2,3′-bipyridin]-6′-yl)methyl)-2,6-diazaspiro[3.4]octan-7-one], 0.92 nM corresponded to half-maximal inhibition in assay [1] (IC50). This molecule also returned an EC50 in assay [2] of 94.1 nM.
On to `COc1cc(-c2nccc(-c3cccc(-c4ccc(CN5CC6(CNC(=O)C6)C5)c(OC)n4)c3Cl)c2Cl)cnc1CNC1CCN(C(C)=O)CC1` [Compound 547, 2-((6-(3-(6′-(((1-acetylpiperidin-4-yl)amino)methyl)-3-chloro-5′-methoxy-[2,3′-bipyridin]-4-yl)-2-chlorophenyl)-2-methoxypyridin-3-yl)methyl)-2,6-diazaspiro[3.4]octan-7-one], for which, in assay [1], the IC50 was determined as 0.35 nM. In addition, the midpoint of the response in assay [2], the EC50, lay at 69.2 nM.
`COc1cc(-c2nccc(-c3cccc(-c4ccc(CN5CC6(CNC(=O)C6)C5)c(OC)n4)c3Cl)c2Cl)cnc1CNC1CCOCC1` [Compound 548, 2-((6-(2-Chloro-3-(3-chloro-5′-methoxy-6′-(((tetrahydro-2H-pyran-4-yl)amino)methyl)-[2,3′-bipyridin]-4-yl)phenyl)-2-methoxypyridin-3-yl)methyl)-2,6-diazaspiro[3.4]octan-7-one] returned a 50% inhibitory concentration (IC50) in assay [1] of 1.13 nM. The same molecule displayed an EC50 in assay [2] of 75.9 nM.
Molecule `COc1cc(-c2nccc(-c3cccc(-c4ccc(CN5CC6(CNC(=O)C6)C5)c(OC)n4)c3Cl)c2Cl)cnc1CNC[C@@H]1CCC(=O)N1` [Compound 550, (S)-2-((6-(2-Chloro-3-(3-chloro-5′-methoxy-6′-((((5-oxopyrrolidin-2-yl)methyl)amino)methyl)-[2,3′-bipyridin]-4-yl)phenyl)-2-methoxypyridin-3-yl)methyl)-2,6-diazaspiro[3.4]octan-7-one] yielded an IC50 in assay [1] of 0.28 nM. In assay [2], the response was half-maximal at 25 nM (EC50).
With `COc1cc(-c2nccc(-c3cccc(-c4ccc5c(CNC6CCN(C(C)=O)CC6)cn(C)c5n4)c3Cl)c2Cl)ccc1CNCCO` [Compound 560, 1-(4-(((6-(2-Chloro-3-(3-chloro-2-(4-(((2-hydroxyethyl)amino)methyl)-3-methoxyphenyl)pyridin-4-yl)phenyl)-1-methyl-1H-pyrrolo[2,3-b]pyridin-3-yl)methyl)amino)piperidin-1-yl)ethan-1-one], the IC50 in assay [1] turned out to be 1.66 nM. A half-maximal response in assay [2] (EC50) required 57.3 nM.
For `COc1cc(-c2nccc(-c3cccc(-c4ccc5c(CNC6CCOCC6)cn(C)c5n4)c3Cl)c2Cl)ccc1CNC1CCOCC1` [Compound 563, N-((6-(2-Chloro-3-(3-chloro-2-(3-methoxy-4-(((tetrahydro-2H-pyran-4-yl)amino)methyl)phenyl)pyridin-4-yl)phenyl)-1-methyl-1H-pyrrolo[2,3-b]pyridin-3-yl)methyl)tetrahydro-2H-pyran-4-amine] the same measures were 4.07 nM and 956 nM.
For `COc1cc(-c2nccc(-c3cccc(-c4ccc5c(CNC6CCN(C(C)=O)CC6)cn(C)c5n4)c3Cl)c2Cl)ccc1CN1CC2(C1)CN(C(C)=O)C2` [Compound 564, 1-(4-(((6-(3-(2-(4-((6-Acetyl-2,6-diazaspiro[3.3]heptan-2-yl)methyl)-3-methoxyphenyl)-3-chloropyridin-4-yl)-2-chlorophenyl)-1-methyl-1H-pyrrolo[2,3-b]pyridin-3-yl)methyl)amino)piperidin-1-yl)ethan-1-one], in that order: 1.46 nM and 260 nM.
In turn, `COc1cc(-c2cccc(-c3ccnc(-c4cnc(CNC5CCN(C(C)=O)CC5)c(OC)c4)c3Cl)c2Cl)cnc1CNC1CCN(C(C)=O)CC1` [Compound 567, 1-(4-(((5-(3-(6′-(((1-acetylpiperidin-4-yl)amino)methyl)-3-chloro-5′-methoxy-[2,3′-bipyridin]-4-yl)-2-chlorophenyl)-3-methoxypyridin-2-yl)methyl)amino)piperidin-1-yl)ethan-1-one] gave a concentration for half-maximal inhibition (IC50) in assay [1] of 17.7 nM. In assay [2], the half-maximal effective concentration (EC50) was not below 10000 nM.
`COc1cc(-c2cccc(-c3ccnc(-c4cnc(CN5CC6(CNC(=O)C6)C5)c(OC)c4)c3Cl)c2Cl)cnc1CN1CC2(CNC(=O)C2)C1` [Compound 569, 2-((3-Chloro-4-(2-chloro-3-(5-methoxy-6-((7-oxo-2,6-diazaspiro[3.4]octan-2-yl)methyl)pyridin-3-yl)phenyl)-5′-methoxy-[2,3′-bipyridin]-6′-yl)methyl)-2,6-diazaspiro[3.4]octan-7-one] came in with an IC50 in assay [1] of 0.62 nM. Besides, the EC50 in assay [2] worked out at 580 nM.
In assay [1], `COc1cc(-c2cccc(-c3ccnc(-c4cnc(CNC5CCOCC5)c(OC)c4)c3Cl)c2Cl)cnc1CNC1CCOCC1` [Compound 570, N-((5-(2-Chloro-3-(3-chloro-5′-methoxy-6′-(((tetrahydro-2H-pyran-4-yl)amino)methyl)-[2,3′-bipyridin]-4-yl)phenyl)-3-methoxypyridin-2-yl)methyl)tetrahydro-2H-pyran-4-amine] gave a 50% inhibitory concentration (IC50) of 18.5 nM. The molecule further registered a half-maximal effective concentration (EC50) in assay [2] not below 10000 nM.
Consider `COc1nc(-c2cccc(-c3nccc(-c4ccc(CNC5CCN(C(C)=O)CC5)c(OC)n4)c3Cl)c2Cl)ccc1CNC1CCN(C(C)=O)CC1` [Compound 572, 1-(4-(((6-(3-(5-(((1-Acetylpiperidin-4-yl)amino)methyl)-3′-chloro-6-methoxy-[2,4′-bipyridin]-2′-yl)-2-chlorophenyl)-2-methoxypyridin-3-yl)methyl)amino)piperidin-1-yl)ethan-1-one], for which, in assay [1], the IC50 is 0.19 nM. In addition, the EC50 in assay [2] was 17.4 nM.
With `COc1nc(-c2cccc(-c3nccc(-c4ccc(CN5CC6(CNC(=O)C6)C5)c(OC)n4)c3Cl)c2Cl)ccc1CN1CC2(CNC(=O)C2)C1` [Compound 573, 2-((3′-Chloro-2′-(2-chloro-3-(6-methoxy-5-((7-oxo-2,6-diazaspiro[3.4]octan-2-yl)methyl)pyridin-2-yl)phenyl)-6-methoxy-[2,4′-bipyridin]-5-yl)methyl)-2,6-diazaspiro[3.4]octan-7-one], the IC50 in assay [1] came to 0.17 nM. This molecule registered an EC50 in assay [2] of 14.4 nM.
On to `COc1nc(-c2cccc(-c3nccc(-c4ccc(CNC5CCOCC5)c(OC)n4)c3Cl)c2Cl)ccc1CNC1CCOCC1` [Compound 574, N-((3′-Chloro-2′-(2-chloro-3-(6-methoxy-5-(((tetrahydro-2H-pyran-4-yl)amino)methyl)pyridin-2-yl)phenyl)-6-methoxy-[2,4′-bipyridin]-5-yl)methyl)tetrahydro-2H-pyran-4-amine], for which the half-inhibitory concentration (IC50) in assay [1] came to 0.04 nM. The molecule further yielded an EC50 in assay [2] of 14 nM.
For `COc1nc(-c2cccc(-c3nccc(-c4ccc(CNC[C@@H]5CCC(=O)N5)c(OC)n4)c3Cl)c2Cl)ccc1CNC[C@@H]1CCC(=O)N1` [Compound 575, (S)-5-((((3′-Chloro-2′-(2-chloro-3-(6-methoxy-5-(((((S)-5-oxopyrrolidin-2-yl)methyl)amino)methyl)pyridin-2-yl)phenyl)-6-methoxy-[2,4′-bipyridin]-5-yl)methyl)amino)methyl)pyrrolidin-2-one], in assay [1], the IC50 is 0.11 nM. The same molecule registered a concentration for a half-maximal effect (EC50) in assay [2] of 14.1 nM.
In assay [1], `COc1cc(-c2nccc(-c3cccc(-c4ccc5c(CNC6CCN(C(C)=O)CC6)cn(C)c5n4)c3Cl)c2Cl)ccc1CN1CC2(CNC(=O)C2)C1` [Compound 579, 2-(4-(4-(3-(3-(((1-Acetylpiperidin-4-yl)amino)methyl)-1-methyl-1H-pyrrolo[2,3-b]pyridin-6-yl)-2-chlorophenyl)-3-chloropyridin-2-yl)-2-methoxybenzyl)-2,6-diazaspiro[3.4]octan-7-one] came in with a half-inhibitory concentration (IC50) of 0.3 nM. In addition, the EC50 in assay [2] worked out at 101 nM.
For `COc1cc(-c2nccc(-c3cccc(-c4ccc5c(CN(C)C6CCN(C(C)=O)CC6)cn(C)c5n4)c3Cl)c2Cl)ccc1CNC1CCOCC1` [Compound 600, 1-(4-(((6-(2-Chloro-3-(3-chloro-2-(3-methoxy-4-(((tetrahydro-2H-pyran-4-yl)amino)methyl)phenyl)pyridin-4-yl)phenyl)-1-methyl-1H-pyrrolo[2,3-b]pyridin-3-yl)methyl)(methyl)amino)piperidin-1-yl)ethan-1-one], in that order: 0.25 nM and 32.6 nM.
`COc1cc(-c2nccc(-c3cccc(-c4ccc5c(CN(C)C6CCN(C(C)=O)CC6)cn(C)c5n4)c3Cl)c2Cl)ccc1CN1CC2(C1)CN(C(C)=O)C2` [Compound 601, 1-(4-(((6-(3-(2-(4-((6-Acetyl-2,6-diazaspiro[3.3]heptan-2-yl)methyl)-3-methoxyphenyl)-3-chloropyridin-4-yl)-2-chlorophenyl)-1-methyl-1H-pyrrolo[2,3-b]pyridin-3-yl)methyl)(methyl)amino)piperidin-1-yl)ethan-1-one] gave a half-maximal inhibitory concentration (IC50) in assay [1] of 0.23 nM. In assay [2], this molecule showed an EC50 of 110 nM.
With `COc1cc(-c2nccc(-c3cccc(-c4ccc5c(CN(C)C6CCN(C(C)=O)CC6)cn(C)c5n4)c3Cl)c2Cl)ccc1CN1CC2(CNC(=O)C2)C1` [Compound 603, 2-(4-(4-(3-(3-(((1-Acetylpiperidin-4-yl)(methyl)amino)methyl)-1-methyl-1H-pyrrolo[2,3-b]pyridin-6-yl)-2-chlorophenyl)-3-chloropyridin-2-yl)-2-methoxybenzyl)-2,6-diazaspiro[3.4]octan-7-one], in assay [1], the IC50 worked out at 0.52 nM. Also, the 50% effective concentration (EC50) in assay [2] was 49.7 nM.
For the molecule `COc1cc(-c2nccc(-c3cccc(-c4ccc5c(CNC6CCOCC6)cn(C)c5n4)c3Cl)c2Cl)ccc1CN1CC2(CNC(=O)C2)C1` [Compound 605, 2-(4-(3-Chloro-4-(2-chloro-3-(1-methyl-3-(((tetrahydro-2H-pyran-4-yl)amino)methyl)-1H-pyrrolo[2,3-b]pyridin-6-yl)phenyl)pyridin-2-yl)-2-methoxybenzyl)-2,6-diazaspiro[3.4]octan-7-one], inhibition in assay [1] was half-maximal at 0.34 nM (IC50). Moreover, in assay [2], the response was half-maximal at 636 nM (EC50).
